Where two headings read alike, the source gives them in different places.
Tested on: helical strips of pulmonary artery of guinea pigs
Assay: calcium-antagonistic action: inhibition of CaCl2-induced contraction of potassium-depolarised helical strips of pulmonary artery
Format: cell-based
Conditions: guinea pig pulmonary artery strips, calcium-free Tyrode's solution, 40 mmol potassium, 0.5 mmol CaCl2, mean value from 4 to 6 strips, read-out: IC50 (concentration of the test substance which inhibits contraction by 50%)
Protocol: This entailed helical strips of pulmonary artery of guinea pigs being equilibrated in calcium-free Tyrode's solution and depolarised with 40 mmol of potassium. Addition of 0.5 mmol of CaCl2 then initiates contraction. The relaxant action of the test substance is determined by cumulative addition of concentrations increasing in steps of 1/2 log 10.

IC50 (Cavia porcellus) [nM] | Molecule | IC50 [nM]
– | 2-Methylethyl 1,4-dihydro-2,6-dimethyl-4-(3-cyanophenyl)-5-(3-methyl-1,2,4-oxadiazol-5-yl)pyridine-3-carboxylate [Example 1t] | 1.5
0.15 | CC1=C(C(=O)OCC(C)C)C(c2cccc([N+](=O)[O-])c2)C(c2nnco2)=C(C)N1 (stereo not shown) [Example 1z, Isobutyl 1,4-dihydro-2,6-dimethyl-4-(3-nitrophenyl)-5-(1,3,4-oxadiazol-2-yl)pyridine-3-carboxylate] | –
0.4 | COC(=O)C1=C(C)NC(C)=C(c2nnco2)C1c1cccc(Cl)c1Cl (stereo not shown) [Example 2b, Methyl 1,4-dihydro-2,6-dimethyl-4-(2,3-dichlorophenyl)-5-(1,3,4-oxadiazol-2-yl)pyridine-3-carboxylate] | –
1.6 | COC(=O)C1=C(C)NC(C)=C(c2nnc(C)o2)C1c1cccc(Cl)c1Cl (stereo not shown) [Example 2e, Methyl 1,4-dihydro-2,6-dimethyl-4-(2,3-dichlorophenyl)-5-(5-methyl-1,3,4-oxadiazol-2-yl)pyridine-3-carboxylate] | –
0.09 | CC1=C(C(=O)OC(C)C)C(c2cccc([N+](=O)[O-])c2)C(c2nnco2)=C(C)N1 (stereo not shown) [Example 2n, Isopropyl 1,4-dihydro-2,6-dimethyl-4-(3-nitrophenyl)-5-(1,3,4-oxadiazol-2-yl)pyridine-3-carboxylate] | –
0.3 | COCCOC(=O)C1=C(C)NC(C)=C(c2nnco2)C1c1ccccc1[N+](=O)[O-] (stereo not shown) [Example 2o, 2-Methoxyethyl 1,4-dihydro-2,6-dimethyl-4-(2-nitrophenyl)-5-(1,3,4-oxadiazol-2-yl)pyridine-3-carboxylate] | –
0.5 | COC(=O)C1=C(C)NC(C)=C(c2nc(Cc3ccccc3)no2)C1c1cccc([N+](=O)[O-])c1 (stereo not shown) [Example 2r, Methyl 1,4-dihydro-2,6-dimethyl-4-(3-nitrophenyl)-5-(3-benzyl-1,2,4-oxadiazol-5-yl)pyridine-3-carboxylate] | –
0.7 | COC(=O)C1=C(C)NC(C)=C(c2nc(Cc3ccccc3)no2)C1c1cccc(Cl)c1Cl (stereo not shown) [Example 2s, Methyl 1,4-dihydro-2,6-dimethyl-4-(2,3-dichlorophenyl)-5-(3-benzyl-1,2,4-oxadiazol-5-yl)pyridine-3-carboxylate] | –
1 | COC(=O)C1=C(C)NC(C)=C(c2nc(Cc3ccccc3)no2)C1c1ccccc1[N+](=O)[O-] (stereo not shown) [Example 2t, Methyl 1,4-dihydro-2,6-dimethyl-4-(2-nitrophenyl)-5-(3-benzyl-1,2,4-oxadiazol-5-yl)pyridine-3-carboxylate] | –
0.7 | COCCOC(=O)C1=C(C)NC(C)=C(c2nc(Cc3ccccc3)no2)C1c1cccc([N+](=O)[O-])c1 (stereo not shown) [Example 2v, 2-Methoxyethyl 1,4-dihydro-2,6-dimethyl-4-(3-nitrophenyl)-5-(3-benzyl-1,2,4-oxadiazol-5-yl)pyridine-3-carboxylate] | –
2.5 | COC(=O)C1=C(C)NC(C)=C(c2nc(Cc3ccccc3)no2)C1c1ccccc1Cl (stereo not shown) [Example 2w, Methyl 1,4-dihydro-2,6-dimethyl-4-(2-chlorophenyl)-5-(3-benzyl-1,2,4-oxadiazol-5-yl)pyridine-3-carboxylate] | –
1.5 | CC1=C(C(=O)OCCOC(C)C)C(c2cccc(Cl)c2Cl)C(c2nnc(C)o2)=C(C)N1 (stereo not shown) [Example 2z1, 2-Isopropoxyethyl 1,4-dihydro-2,6-dimethyl-4-(2,3-dichlorophenyl)-5-(2-methyl-1,3,4-oxadiazol-5-yl)pyridine-3-carboxylate] | –
0.2 | CC1=C(C(=O)OC(C)C)C(c2cccc(Cl)c2Cl)C(c2nnco2)=C(C)N1 (stereo not shown) [Example 2z2, Isopropyl 1,4-dihydro-2,6-dimethyl-4-(2,3-dichlorophenyl)-5-(1,3,4-oxadiazol-2-yl)pyridine-3-carboxylate] | –
2 | CC1=C(c2nnco2)C(c2cccc([N+](=O)[O-])c2)C(c2nnco2)=C(C)N1 [Example 3a, 1,4-Dihydro-2,6-dimethyl-3,5-di(1,3,4-oxadiazol-2-yl)-4-(3-nitrophenyl)pyridine] | –
1.8 | CCc1noc(C2=C(C)NC(C)=C(C(=O)OCCOC)C2c2cccc(Cl)c2Cl)n1 (stereo not shown) [Example 4b, 2-Methoxyethyl 1,4-dihydro-2,6-dimethyl-4-(2,3-dichlorophenyl)-5-(3-ethyl-1,2,4-oxadiazol-5-yl)pyridine-3-carboxylate] | –
2.4 | CCc1noc(C2=C(C)NC(C)=C(C(=O)OC)C2c2cccc(Cl)c2Cl)n1 (stereo not shown) [Example 4c, Methyl 1,4-dihydro-2,6-dimethyl-4-(2,3-dichlorophenyl)-5-(3-ethyl-1,2,4-oxadiazol-5-yl)pyridine-3-carboxylate] | –
1 | CCc1nnc(C2=C(C)NC(C)=C(C(=O)OCCOC)C2c2cccc([N+](=O)[O-])c2)o1 (stereo not shown) [Example 4k, 2-Methoxyethyl 1,4-dihydro-2,6-dimethyl-4-(3-nitrophenyl)-5-(2-ethyl-1,3,4-oxadiazol-5-yl)pyridine-3-carboxylate] | –
1.5 | CCc1nnc(C2=C(C)NC(C)=C(C(=O)OCCOC)C2c2cccc(Cl)c2Cl)o1 (stereo not shown) [Example 4m, 2-Methoxyethyl 1,4-dihydro-2,6-dimethyl-4-(2,3-dichlorophenyl)-5-(2-ethyl-1,3,4-oxadiazol-5-yl)pyridine-3-carboxylate] | –
1.6 | CCOC(=O)c1sc(C2=C(C)NC(C)=C(C(=O)OCCOC)C2c2cccc([N+](=O)[O-])c2)nc1C (stereo not shown) [Example 5b, 2-Methoxyethyl 1,4-dihydro-2,6-dimethyl-4-(3-nitrophenyl)-5-(4-methyl-5-ethoxycarbonyl-2-thiazolyl)pyridine-3-carboxylate] | –
